Data on 5 compounds can be found in patent US5478728A, “Process for antibody combining site-catalyzed SYN elimination in the formation of a CIS olefin” (The Scripps Research Institute, priority 1994, dated 1995).

Entries after “also recorded” stand apart in the source; their conditions may differ.

For one series, the system named is antibody 1D4. Briefly: Inhibition of 1D4 catalytic activity by hapten. It counts as biochemical, mouse. The settings on record: addition of hapten; substrate Compound 1. As to the method: (§1) Immunization with the KLH conjugate and generation of monoclonal antibodies were performed as described hereinafter. Twenty-six monoclonal antibodies specific for Compound 5 were assayed for catalysis. The rate of elimination of substrate Compound 1 to product Compounds 3 or 4 was assayed in the absence and presence of antibody at 37° C. Thus, a solution of antibody in 100 mM CHES buffer, pH 9.0 at 37° C., was treated with substrate Compound 1 in DMSO to provide a final solution containing […] in 15 percent aqueous DMSO, 100 mM CHES, pH 9.0. All reaction rates were determined by analytical reverse phase HPLC (Vydac-C18, 41 percent acetonitrile in H2 O/0.1 percent trifluoroacetic acid) by measuring product formation relative to 4-methyl-3-nitroanisole as a standard.
The initial rate of syn elimination by 1D4, when measured as a function of substrate Compound 1 concentrations followed Michaelis-Menten kinetics.

Series [1] can be described thus: Background elimination and isomerization in the absence of antibody. It counts as physicochemical. The settings on record: for elimination product formed in the absence of antibody / isomerization of olefinic product under background reaction conditions: 15 percent aq DMSO, 100 mM CHES buffer; for isomerization of olefinic product under background reaction conditions: no antibody. The protocol: Reaction conditions: 15 percent aq DMSO, 100 mM CHES buffer, pH 9.0, 37° C.
as §1

Consider `N[C@@]1(C(=O)c2ccccc2)[C@@H]2C[C@@H](C[C@H]2OC(=O)CCC(=O)O)[C@@H]1c1ccccc1` (relative stereo) [Compound 5, (1R*,2S*,4R*,5S*,6S*)-6-Amino-6-benzoyl-5-phenylbicyclo[2.2.1]heptane-2-hemisuccinate], for which the “inhibition of the catalytic activity of 1D4” value with antibody 1D4 is “competitively inhibited”.
As for `C[C@@H](C(=O)c1ccccc1)[C@H](F)c1ccccc1` (relative stereo) [Compound 2], the “elimination product formed in the absence of antibody” value in series [1] (pH 9.0, 37° C.) is listed as “eliminates entirely to the trans olefin Compound 3”.
Take `C/C(=C\c1ccccc1)C(=O)c1ccccc1` [Compound 3]: in series [1] (pH 9.0, 37° C.), the “isomerization of olefinic product under background reaction conditions” value was “No isomerization”.
Turning to `C/C(=C/c1ccccc1)C(=O)c1ccccc1` [Compound 4], in series [1] (pH 9.0, 37° C.), the “isomerization of olefinic product under background reaction conditions” value was “No isomerization”.
Consider `C[C@@H](C(=O)c1ccccc1)[C@@H](F)c1ccccc1` (relative stereo) [Compound 1], for which, in series [1] (pH 9.0, 37° C.), the “elimination product formed in the absence of antibody” value was “exclusively the trans olefin Compound 3; also recorded: only product Compound 3 was generated”. In series [1] (absence of antibody, 15 percent aqueous DMSO, 100 mM CHES, pH 9.0, 37° C.), the “first order rate constant of elimination to Compound 3” value turned out to be 0.000248 min⁻¹. For the same compound, the “formation of cis product Compound 4 in the absence of antibody” value in series [1] (reaction conditions pH 9.0, 37° C.) was “immeasurably slow”.
